Reference: article PMC12977544, “Phenotypic high-throughput screening identifies modulators of gut microbial choline metabolism” (mBio, 2026)

What was measured:
[1] = system: Hungatella hathewayi cultures; parameters: method as in PMID 31059309; settings: cited from earlier work
choline transporters = system: choline transporters; parameters: method as in PMID 33271015; settings: read-out: IC50 of choline transport in human cells that overexpress choline transporters; cited from earlier work
TMAO production in vivo = system: TMAO production in vivo; parameters: method as in PMID 30082863; settings: cited from earlier work
[2] = system: Proteus mirabilis lysates; parameters: method as in PMID 30082863; settings: read-out: IC50 against Proteus mirabilis lysates; cited from earlier work
[3] = system: high affinity choline transporter (HAChT), choline transport in rat synaptosomes; parameters: method as in PMID 2066974; settings: cited from earlier work
[4] = cited from earlier work
[5] = system: choline transport into ∆cutC E. coli MS 200-1 cells; test: [14C]-choline uptake; assay type: cell-based, Escherichia coli MS 200-1 ∆cutC; settings: 10 µM
Method: The ∆cutC strain of E. coli was used in this assay to prevent the formation of volatile radioactive TMA. When cells were grown aerobically, incubation with compound 42 increased choline uptake by 15 times compared to vehicle treatment (Fig. S2B).
E. coli MS 200-1 ∆cutC was grown either aerobically or anaerobically in LB medium supplemented with 1 mM choline chloride. Cells were pelleted and resuspended in fresh PBS after overnight growth to OD600 of 1 and aliquoted into microcentrifuge tubes. […] 5 µM [^14C] choline was added to the cells and left to incubate for 15 mins aerobically. At the end of the incubation period, cells were washed with PBS three times by centrifugation at 3,000 × g for 5 min and resuspended in equal volume of PBS. The resulting cell resuspension in PBS was transferred to a scintillation vial, where 10 mL of liquid scintillation cocktail was added and mixed. Radioactivity was counted using a Beckman Coulter LS6000 liquid scintillation counter for 1 min per sample.

E. coli MS 200-1 = test: Growth inhibition of E. coli cultures in choline- and glycerol-containing minimal media; assay type: cell-based, Escherichia coli MS 200-1
Method: To validate the potential hits from the HTS, we tested the 178 compounds for inhibition of growth of E. coli MS 200-1 in glycerol minimal media at 30 µg/mL, following up with those without activity. […]. We then determined EC50 values for inhibition of TMA production from choline by bacterial cultures incubated with [trimethyl-d9]choline in phosphate-buffered saline. Of the 178 compounds tested in both growth and TMA inhibition assays, 20 inhibited TMA generation by E. coli MS 200-1 without growth-inhibitory effects in glycerol minimal medium.
NCE media was adapted based on the “no carbon E” media as previously described ([14]), and contains 29 mM potassium phosphate monobasic, 29 mM potassium phosphate dibasic, 17 mM ammonium sodium phosphate dibasic, 40 mM sodium fumarate dibasic, 0.1% (wt/vol) casamino acids, and either 20 mM choline chloride or 3 g/L glycerol. This mixture was supplemented with 1 mM magnesium sulfate, 1% ATCC vitamin supplement, and 1% ATCC trace mineral supplement.

[6] = system: cut gene cluster expression in E. coli MS 200-1; test: Transcription of the cut gene cluster after choline induction (Nanostring nCounter); settings: 10 µM, NCE glycerol, 1 mM choline induction, 1.5 h
[7] = molecular target: T1, purified CutC (choline trimethylamine-lyase) (Oleidesulfovibrio alaskensis, UniProt Q30W70); test: In vitro CutC activity assay coupled to YADH/NADH (absorbance 340 nm); assay type: biochemical, Desulfovibrio desulfuricans G20; settings: 5 nM CutC, 200 µM choline, 20°C, anaerobic
T1 construct: made in house
T1 sequence (Q30W70 53-846): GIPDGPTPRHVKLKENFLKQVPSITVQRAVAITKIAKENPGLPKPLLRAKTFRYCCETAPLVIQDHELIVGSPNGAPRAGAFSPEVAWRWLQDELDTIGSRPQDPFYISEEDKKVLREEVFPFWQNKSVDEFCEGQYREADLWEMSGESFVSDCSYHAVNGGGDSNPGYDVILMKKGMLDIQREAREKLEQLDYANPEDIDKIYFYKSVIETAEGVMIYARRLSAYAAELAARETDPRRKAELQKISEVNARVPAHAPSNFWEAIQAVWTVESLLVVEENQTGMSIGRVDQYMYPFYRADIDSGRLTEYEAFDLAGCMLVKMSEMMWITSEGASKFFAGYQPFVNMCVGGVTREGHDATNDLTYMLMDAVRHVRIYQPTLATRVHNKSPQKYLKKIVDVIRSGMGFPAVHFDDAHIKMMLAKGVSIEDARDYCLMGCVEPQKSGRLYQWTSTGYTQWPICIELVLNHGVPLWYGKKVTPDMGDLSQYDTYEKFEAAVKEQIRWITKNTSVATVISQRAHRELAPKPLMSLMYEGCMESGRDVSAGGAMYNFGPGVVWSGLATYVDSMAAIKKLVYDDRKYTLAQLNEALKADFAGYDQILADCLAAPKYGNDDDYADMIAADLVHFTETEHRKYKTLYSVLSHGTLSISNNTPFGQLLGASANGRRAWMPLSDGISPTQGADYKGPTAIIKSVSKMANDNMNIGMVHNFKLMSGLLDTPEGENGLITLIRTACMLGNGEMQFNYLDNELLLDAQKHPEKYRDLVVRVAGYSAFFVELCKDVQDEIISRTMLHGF
Method: To investigate if our compounds were inhibiting CutC directly, we tested their activity toward the purified enzyme. The activity of CutC was determined using a coupled enzyme assay, where the acetaldehyde product from the cleavage of choline to TMA is reduced to ethanol by yeast alcohol dehydrogenase (YADH) using nicotinamide adenine dinucleotide (NADH) as a cofactor. The consumption of NADH results in a change in absorption at 340 nm, and this rate of change of absorption was used to calculate the initial rates of reaction of CutC in the presence of varying concentrations of inhibitors ([14], [65]).
CutC and CutD enzymes from Desulfovibrio desulfuricans G20 were purified, CutC was activated by incubation with CutD, and the amount of glycyl radical installation was quantified as previously described ([15]). The IC50 of compounds was determined in an in vitro CutC activity assay, where CutC activity is coupled to the NADH-dependent enzymatic reduction of acetaldehyde by YADH ([15]). Briefly, assays were conducted in an anaerobic chamber (MBraun) under N2 atmosphere at 20°C. In 50 mM potassium phosphate buffer (pH 8.0, 50 mM KCl), 40 µM of CutD and 150 µM of sodium dithionite were incubated for 20 min before the addition of 200 µM of SAM and 20 µM of CutC monomer. The mixture was incubated for 1 h to activate the glycyl radical enzyme, after which the activated CutC mixture was diluted […] in 50 mM potassium phosphate buffer (pH 8.0, 50 mM KCl). A master mix containing 200 µM NADH, 0.4 µM YADH (Sigma), and the diluted CutC mixture (5 nM final concentration in assay) was prepared and aliquoted into 96-well plates (180 µL per well). Ten microliters of inhibitor or DMSO vehicle was added, followed by 10 µL of aqueous choline chloride solution (final concentration 200 µM). Absorbance was measured at 340 nm immediately after addition of all assay components, with measurements taken every 20 s for 10 min. Initial rates were calculated from absorbance measurements and fitted to Michaelis–Menten equation using nonlinear regression in GraphPad Prism 10 (v. 10.4.0). Background activity was subtracted using no substrate controls, and initial rates for each inhibitor concentration were normalized to no inhibitor controls. IC50 values were obtained by plotting normalized activity values against the logarithm of inhibitor concentration and fitting to a nonlinear regression model in GraphPad Prism 10 (v. 10.4.0).

C[N+](C)(CCO)CCCCCCOc1cccc(I)c1 [Compound 4]
IC50 [1]: 15 µM
IC50 (choline transporters): 44 nM

C[N+](C)(CF)CCO [FMC, fluoromethylcholine]
EC50 of inhibition of TMAO production in vivo (TMAO production in vivo): 3.4 mg/kg

C[N+](C)(CI)CCO [IMC, Iodomethylcholine]
IC50 [2]: 1.5 nM
IC50 [3]: 490 nM
Concentration in mice cecum and colon samples ([4]; dosed at 100 mg/kg, after 24 h): around 6 mM
Level of inhibitor and its metabolite iodomethylbetaine in serum ([4]; mouse, in vivo): low micromolar levels
EC50 of inhibition of TMAO production in vivo (TMAO production in vivo): 45 mg/kg

Cc1ccc(-c2cc(C(=O)NCCCN3CCCCCC3)c(C)[nH]2)cc1C [Compound 42]
Increase of choline uptake compared to vehicle ([5]; cells grown aerobically): 15 times
Increase of choline uptake compared to vehicle ([5]; cells grown anaerobically): 1.2 times
Inhibition of E. coli growth on choline (E. coli MS 200-1; choline minimal medium, 7 h, 6: 125–500 µM, 42: 30–100 µM): dose-dependent
Effect on growth of E. coli MS 200-1 in glycerol medium (E. coli MS 200-1; glycerol NCE minimal medium): not observed in glycerol
Effect on cut gene cluster expression vs DMSO control [6]: did not significantly change gene expression
IC50 [7]: 24 µM
